According to PubChem BioAssay (NCI):
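Where inhibition never reached the appropriate level, the endpoint shown equals the highest concentration tested. Otherwise, values were interpolated linearly from a five-concentration, 48-hour dose response in 96-well plates. Abbreviation: GI50, concentration required for 50% inhibition of growth. TGI denotes the concentration required for complete inhibition of growth.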

What was measured:
Experiment in all cases: inhibition of tumour cell growth, NCI panel, 48 h
[1] = tested on: 786-0 renal
[2] = tested on: A498 renal
[3] = tested on: A549 NSCLC
[4] = tested on: ACHN renal
[5] = tested on: BT-549 breast
[6] = tested on: CAKI-1 renal
[7] = tested on: CCRF-CEM leukemia
[8] = tested on: COLO 205 colon
[9] = tested on: DU-145 prostate
[10] = tested on: EKVX NSCLC
[11] = tested on: HCC-2998 colon
[12] = tested on: HCT-116 colon
[13] = tested on: HCT-15 colon
[14] = tested on: HL-60(TB) leukemia
[15] = tested on: HOP-62 NSCLC
[16] = tested on: HOP-92 NSCLC
[17] = tested on: HS 578T breast
[18] = tested on: IGROV1 ovarian
[19] = tested on: K-562 leukemia
[20] = tested on: KM12 colon
[21] = tested on: LOX IMVI melanoma
[22] = tested on: M14 melanoma
[23] = tested on: MCF7 breast
[24] = tested on: MDA-MB-231 breast
[25] = tested on: MDA-MB-435
[26] = tested on: MOLT-4 leukemia
[27] = tested on: NCI-H23 lung
[28] = tested on: NCI-H460 lung
[29] = tested on: NCI-H522 lung
[30] = tested on: NCI/ADR-RES ovarian
[31] = tested on: OVCAR-3 ovarian
[32] = tested on: OVCAR-4 ovarian
[33] = tested on: OVCAR-8 ovarian
[34] = tested on: PC-3 prostate
[35] = tested on: RPMI-8226 leukemia
[36] = tested on: RXF 393 renal
[37] = tested on: SF-268 CNS
[38] = tested on: SF-295 CNS
[39] = tested on: SF-539 CNS
[40] = tested on: SK-MEL-2 melanoma
[41] = tested on: SK-MEL-28 melanoma
[42] = tested on: SK-MEL-5 melanoma
[43] = tested on: SK-OV-3 ovarian
[44] = tested on: SN12C renal
[45] = tested on: SNB-19 CNS
[46] = tested on: SNB-75 CNS
[47] = tested on: SR leukemia
[48] = tested on: SW-620 colon
[49] = tested on: T-47D breast
[50] = tested on: TK-10 renal
[51] = tested on: U251 CNS
[52] = tested on: UACC-257 melanoma
[53] = tested on: UACC-62 melanoma
[54] = tested on: UO-31 renal

Cn1c(-c2c(N)n(Nc3cccc(Cl)c3)c3nc(C#N)c(C#N)nc23)nc2ccccc21
GI50 [1]: 8.91 µM | TGI [1]: 37.3 µM | GI50 [2]: 6.56 µM | TGI [2]: 16.6 µM | GI50 [3]: 10.9 µM | TGI [3]: 35.4 µM | GI50 [4]: 5.44 µM | TGI [4]: 15 µM | GI50 [5]: 0.0816 µM | TGI [5]: 1.97 µM | GI50 [6]: 7.29 µM | TGI [6]: 43.2 µM | GI50 [7]: 23.5 µM | TGI [7]: > 50 µM | GI50 [8]: 6.35 µM | TGI [8]: 18.2 µM | GI50 [9]: 6.46 µM | TGI [9]: 15.4 µM | GI50 [10]: 0.839 µM | TGI [10]: 7.45 µM | GI50 [11]: 6.95 µM | TGI [11]: 16.9 µM | GI50 [12]: 8.54 µM | TGI [12]: > 50 µM | GI50 [13]: 3.45 µM | TGI [13]: 17.2 µM | GI50 [14]: 8.19 µM | TGI [14]: > 50 µM | GI50 [15]: 15.6 µM | TGI [15]: 43.4 µM | GI50 [16]: 16.5 µM | TGI [16]: > 50 µM | GI50 [17]: 7.26 µM | TGI [17]: 30.1 µM | GI50 [18]: 1.27 µM | TGI [18]: 12.6 µM | GI50 [19]: 5.43 µM | TGI [19]: 25.5 µM | GI50 [20]: 9.57 µM | TGI [20]: 26.1 µM | GI50 [21]: 5.25 µM | TGI [21]: 11.5 µM | GI50 [22]: 6.51 µM | TGI [22]: 20 µM | GI50 [23]: 4.96 µM | TGI [23]: > 50 µM | GI50 [24]: 6.47 µM | TGI [24]: 17.7 µM | GI50 [25]: 3.28 µM | TGI [25]: 14 µM | GI50 [26]: > 50 µM | TGI [26]: > 50 µM | GI50 [27]: 2.88 µM | TGI [27]: 13.2 µM | GI50 [28]: 13.3 µM | TGI [28]: > 50 µM | GI50 [29]: 1.06 µM | TGI [29]: 8.19 µM | GI50 [30]: 0.837 µM | TGI [30]: 14.1 µM | GI50 [31]: 6.96 µM | TGI [31]: 33.5 µM | GI50 [32]: 1.36 µM | TGI [32]: 16.4 µM | GI50 [33]: 7.56 µM | TGI [33]: 26.4 µM | GI50 [34]: 10.5 µM | TGI [34]: 33.9 µM | GI50 [35]: 3.53 µM | TGI [35]: > 50 µM | GI50 [36]: 0.0138 µM | TGI [36]: 3.54 µM | GI50 [37]: 10 µM | TGI [37]: 35.6 µM | GI50 [38]: 11 µM | TGI [38]: 27.8 µM | GI50 [39]: 1.38 µM | TGI [39]: 10.3 µM | GI50 [40]: 5.85 µM | TGI [40]: 18.9 µM | GI50 [41]: 6.99 µM | TGI [41]: 24.4 µM | GI50 [42]: 7.41 µM | TGI [42]: 16.6 µM | GI50 [43]: 13.4 µM | TGI [43]: 43 µM | GI50 [44]: 5.15 µM | TGI [44]: 12.5 µM | GI50 [45]: 10.7 µM | TGI [45]: 24.3 µM | GI50 [46]: 8.33 µM | TGI [46]: 35.1 µM | GI50 [47]: 2.53 µM | TGI [47]: 41.4 µM | GI50 [48]: 7.94 µM | TGI [48]: > 50 µM | GI50 [49]: 13.2 µM | TGI [49]: > 50 µM | GI50 [50]: 12.9 µM | TGI [50]: > 50 µM | GI50 [51]: 7.92 µM | TGI [51]: 15.3 µM | GI50 [52]: 6.18 µM | TGI [52]: 15.9 µM | GI50 [53]: 4.59 µM | TGI [53]: 14.9 µM | GI50 [54]: 3.74 µM | TGI [54]: 11.3 µM
